Laboratory results as given in patent publication US9210927B2, “Pesticidal compositions and processes related thereto” (Dow AgroSciences LLC, priority 2013, dated 2015).
Like-named read-outs stand apart in the source and are kept apart here.

Assays:
[1] = test system: CL (Trichoplusia ni); assay: Bioassays on Cabbage Looper (CL), 128-well diet tray assay; type: in vivo; conditions: 168 h, percent mortality, second instar larvae, 50 μg/cm^2 on artificial diet, five to seven days, 25° C., read-out: CL Rating
Procedure: Bioassays on Beet Armyworm (“BAW”) and Corn Earworm (“CEW”) and Cabbage Looper (“CL”)
Certain molecules disclosed in this document were tested against BAW and CEW and CL using procedures described in the following examples. In the reporting of the results, the “BAW & CEW & CL Rating Table” was used (See Table Section).
Bioassays on CL (Trichoplusia ni)
Bioassays on CL were conducted using a 128-well diet tray assay. One to five second instar CL larvae were placed in each well (3 mL) of the diet tray that had been previously filled with 1 mL of artificial diet to which 50 μg/cm^2 of the test compound (dissolved in 50 μL of 90:10 acetone-water mixture) had been applied (to each of eight wells) and then allowed to dry. Trays were covered with a clear self-adhesive cover, and held at 25° C., 14:10 light-dark for five to seven days. Percent mortality was recorded for the larvae in each well; activity in the eight wells was then averaged. The results are indicated in the table entitled “Table 3A: Assay Results” (See Table Section).

[2] = test system: BAW (Spodoptera exigua); assay: Bioassays on Beet Armyworm (BAW), 128-well diet tray assay; type: in vivo; conditions: Spodoptera exigua, 168 h, read-out: BAW Rating
In short: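 Diet surface dosed at 50 μg/cm^2 (acetone-water 90:10 vehicle), dried, then infested with second-instar larvae, one to five per well. After five to seven days at 25° C. under 14:10 light-dark, mortality per well was scored and averaged over eight wells.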

[3] = test system: CEW (Helicoverpa zea); assay: Bioassays on Corn Earworm (CEW), 128-well diet tray assay; type: in vivo; conditions: Helicoverpa zea, 168 h; percent mortality, second instar larvae, 50 μg/cm^2 on artificial diet, five to seven days, 25° C.; read-out: CEW Rating
In short: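 Percent larval mortality, averaged across eight wells, read after five to seven days at 25 °C under 14:10 light-dark. Each well held one to five second-instar larvae on diet surface-dosed at 50 μg/cm^2 (compound applied in acetone-water 90:10, then dried).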

[4] = test system: GPA (Myzus persicae); assay: Bioassays on Green Peach Aphid (GPA), foliar spray on cabbage seedlings; type: in vivo; conditions: 72 h, corrected % control (Abbott), 200 ppm spray on cabbage seedlings, three days, read-out: GPA Rating
In short: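 Activity given as Abbott-corrected % control, from live aphid counts versus solvent-only plants three days after treatment at about 25° C. Compounds were applied at 200 ppm (acetone/MeOH diluted in 0.025% aqueous Tween 20) as a runoff spray on aphid-infested cabbage seedlings, four replicates each.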

[5] = percent mortality, second instar larvae, 50 μg/cm^2 on artificial diet, five to seven days, 25° C.

| melting point [°C] | Structure (SMILES) | pest or weed control at 50 µg/cm2 [1] [%] | pest or weed control at 50 µg/cm2 [2, 5] [%] | pest or weed control at 50 µg/cm2 [3] [%] | pest or weed control at 50 µg/cm2 [2] [%] | pest or weed control at 200 ppm [4] [%] |
| --- | --- | --- | --- | --- | --- | --- |
| 110 to 112 | NC(=O)c1ccc(/C=C/C(c2cc(Cl)cc(Cl)c2)C(F)(F)F)cc1 (stereo not drawn) [AC2] |  |  |  |  |  |
|  | CCNC(=O)N(C)NC(=O)c1ccc(/C=C/C(c2cc(Cl)c(Cl)c(Cl)c2)C(F)(F)F)cc1Br (stereo not drawn) [Compound F1, (E)-2-(2-Bromo-4-(4,4,4-trifluoro-3-(3,4,5-trichlorophenyl)but-1-en-1-yl)benzoyl)-N-ethyl-1-methylhydrazinecarboxamide] | 50 to 100 | 50 to 100 |  |  |  |
|  | O=C(NCC(F)(F)F)NNC(=O)c1ccc(/C=C/C(c2cc(Cl)c(Cl)c(Cl)c2)C(F)(F)F)cc1Br (stereo not drawn) [Compound F7, (E)-2-(2-Bromo-4-(4,4,4-trifluoro-3-(3,4,5-trichlorophenyl)but-1-en-1-yl)benzoyl)-N-(2,2,2-trifluoroethyl)hydrazinecarboxamide] | 50 to 100 | 50 to 100 |  |  |  |
|  | FC(F)(F)C(/C=C/c1ccc(-n2cncn2)cc1)c1ccc(Cl)c(Cl)c1 (stereo not drawn) [DC12] |  |  | 50 to 100 | 50 to 100 | 0 to 80 |
|  | COc1c(Cl)cc(C(/C=C/c2ccc(-n3cncn3)c(C#N)c2)C(F)(F)F)cc1Cl (stereo not drawn) [DC34] |  |  | 50 to 100 | 50 to 100 | 0 to 80 |
|  | N#Cc1cc(/C=C/C(c2cc(Cl)c(F)c(Cl)c2)C(F)(F)F)ccc1-n1cncn1 (stereo not drawn) [DC35] |  |  | 50 to 100 | 50 to 100 | 0 to 80 |
|  | CN(NC(=O)c1ccc(/C=C/C(c2cc(Cl)c(Cl)c(Cl)c2)C(F)(F)F)cc1Br)C(=O)NCC(F)(F)F (stereo not drawn) [FA1] | 50 to 100 | 50 to 100 |  |  |  |
|  | CN(NC(=O)c1ccc(/C=C/C(c2cc(Cl)c(Cl)c(Cl)c2)C(F)(F)F)cc1C(F)(F)F)C(=O)NCC(F)(F)F (stereo not drawn) [FA2] | 50 to 100 | 50 to 100 |  |  |  |
|  | CN(NC(=O)c1ccc(/C=C/C(c2cc(Br)cc(Br)c2)C(F)(F)F)cc1C(F)(F)F)C(=O)NCC(F)(F)F (stereo not drawn) [FA4] | 50 to 100 | 50 to 100 |  |  |  |
|  | CN(NC(=O)c1ccc(/C=C/C(c2cc(Br)c(Cl)c(Br)c2)C(F)(F)F)cc1C(F)(F)F)C(=O)NCC(F)(F)F (stereo not drawn) [FA5] | 50 to 100 | 50 to 100 |  |  |  |
|  | CN(NC(=O)c1ccc(/C=C/C(c2cc(Cl)c(Br)c(Cl)c2)C(F)(F)F)cc1C(F)(F)F)C(=O)NCC(F)(F)F (stereo not drawn) [FA6] | 50 to 100 | 50 to 100 |  |  |  |
|  | CN(NC(=O)c1ccc(/C=C/C(c2cc(Cl)c(F)c(Cl)c2)C(F)(F)F)cc1C(F)(F)F)C(=O)NCC(F)(F)F (stereo not drawn) [FA7] | 50 to 100 | 50 to 100 |  |  |  |
|  | CN(NC(=O)c1ccc(/C=C/C(c2cc(Cl)c(Cl)c(Cl)c2)C(F)(F)F)cc1C(F)(F)F)C(=O)NCC(F)F (stereo not drawn) [FA8] | 50 to 100 | 50 to 100 |  |  |  |
|  | CN(NC(=O)c1ccc(/C=C/C(c2cc(Cl)c(Cl)c(Cl)c2)C(F)(F)F)cc1C(F)(F)F)C(=O)NCCC(F)(F)F (stereo not drawn) [FA9] | 50 to 100 | 50 to 100 |  |  |  |
